The IC50 is the concentration at which inhibition is half-maximal.

This is an account of results in ChEMBL document CHEMBL4364310, “Design, synthesis and biological evaluation of novel α-aminophosphonate oxadiazoles via optimized iron triflate catalyzed reaction as apoptotic inducers” (Eur J Med Chem, 2019).

One series concerns MCF7. Nature of the series: Antiproliferative activity against human MCF7 cells assessed as reduction in cell viability incubated for 48 hrs by MTT assay. As to conditions: MCF7, 48 h. The series is classed as functional, cell-based. A general note: Tetrazolium assays rely on reduction of a dye to a coloured formazan, in cell work by metabolically active cells.
A further series deals with HepG2. Nature of the series: Antiproliferative activity against human HepG2 cells assessed as reduction in cell viability incubated for 48 hrs by MTT assay. As to conditions: HepG2, 48 h. It is filed as functional, cell-based.
Series [1] has as its system HCT-116. Nature of the series: Antiproliferative activity against human HCT116 cells assessed as reduction in cell viability incubated for 48 hrs by MTT assay. Conditions: HCT-116, 48 h. It is filed as functional, cell-based.
The test system of series [2] is HCT-116. The series is described as follows: Induction of apoptosis in human HCT116 cells assessed as increase in cytochrome C by ELISA relative to control. It is filed as functional. (An ELISA detects its analyte on a solid surface through an enzyme-linked reagent.)
For series [3], the system named is HCT-116. The series is described as follows: Induction of apoptosis in human HCT116 cells assessed as increase in caspase 9 level by ELISA relative to control. It is filed as functional.
For series [4], the system named is HCT-116. Nature of the series: Induction of apoptosis in human HCT116 cells assessed as decrease in Bcl 2 level by ELISA relative to control (reference value: 10.1 +/- 0.73 ng/ml). The series is classed as functional.
For series [5], the system named is HCT-116. The series is described as follows: Induction of cell cycle arrest in human HCT116 cells assessed as accumulation in G2/M phase incubated for 24 hrs by annexin V FITC and propidium iodide staining based flow cytometry (reference value: 18.29 %). The series is classed as functional. For orientation: In flow cytometry, cells or beads pass a laser one at a time.

In series [6] the test system is HCT-116. The series is described as follows: Induction of apoptosis in human HCT116 cells assessed as early apoptotic cells incubated for 24 hrs by annexin V FITC and propidium iodide staining based flow cytometry (reference value: 0.9 %). The series is classed as functional.
The next series deals with FHC. Nature of the series: Cytotoxicity against human FHC cells assessed as reduction in cell viability incubated for 48 hrs by MTT assay. It is filed as cell-based.
The subject of series [7] is HCT-116. Nature of the series: Induction of apoptosis in human HCT116 cells assessed as late apoptotic cells incubated for 24 hrs by annexin V FITC and propidium iodide staining based flow cytometry (reference value: 0.39 %). The series is classed as functional.
In series [8] the test system is HCT-116. The series is described as follows: Induction of cell cycle arrest in human HCT116 cells assessed as accumulation in G0/G1 phase incubated for 24 hrs by annexin V FITC and propidium iodide staining based flow cytometry (reference value: 46.72 %). The series is classed as functional.
In series [9] the test system is HCT-116. The series is described as follows: Induction of apoptosis in human HCT116 cells assessed as necrotic cells incubated for 24 hrs by annexin V FITC and propidium iodide staining based flow cytometry (reference value: 0.46 %). It is filed as functional.
Series [10] is described as follows: Selectivity index, ratio of IC50 for human FHC cells to IC50 for human HCT116 cells. The series is classed as toxicity. As to conditions: FHC cells and HCT116 cells, read-out: Ratio IC50.
In series [11] the test system is HCT-116. The series is described as follows: Induction of cell cycle arrest in human HCT116 cells assessed as accumulation in S phase incubated for 24 hrs by annexin V FITC and propidium iodide staining based flow cytometry (reference value: 34.99 %). It is filed as functional.
Series [12] relates to HCT-116. The series is described as follows: Induction of apoptosis in human HCT116 cells assessed as increase in caspase 8 level by ELISA relative to control. It is filed as functional.
The test system of series [13] is HCT-116. Nature of the series: Induction of cell cycle arrest in human HCT116 cells assessed as accumulation in preG phase incubated for 24 hrs by annexin V FITC and propidium iodide staining based flow cytometry (reference value: 1.75 %). It is filed as functional.
Series [14] deals with HCT-116. Nature of the series: Induction of apoptosis in human HCT116 cells assessed as increase in Bax level by ELISA relative to control. The series is classed as functional.
Series [15] concerns HCT-116. Nature of the series: Induction of apoptosis in human HCT116 cells assessed as increase in caspase 3 level by ELISA relative to control. The series is classed as functional.

Consider `CCOP(=O)(OCC)C(NNC(=O)CSc1nnc(-c2ccncc2)o1)c1ccc(O)c(O)c1` (stereo unspecified), for which the results for the IC50 in the series with MCF7, in the series with HepG2 and with HCT-116 [1] were 63.4 µM, 27.3 µM and 21.1 µM, respectively.

As for `CCOP(=O)(OCC)C(NNC(=O)CSc1nnc(-c2ccncc2)o1)c1cccs1` (stereo unspecified), the IC50 is 47.8 µM in the series on MCF7, 13.9 µM in the series with HepG2 and 17.1 µM with HCT-116 [1].

Consider `CCOP(=O)(OCC)C(NNC(=O)CSc1nnc(-c2ccncc2)o1)c1ccc(F)cc1` (stereo unspecified), for which the IC50 with MCF7 stood at 70.6 µM; in the series with HepG2, 21.5 µM; in the series on HCT-116 [1] it was 31.3 µM.

Regarding `CCOP(=O)(OCC)C(NNC(=O)CSc1nnc(-c2ccncc2)o1)c1ccc(O)cc1` (stereo unspecified), the half-inhibitory concentration (IC50) is 52.9 µM in the series on MCF7, 14.8 µM in the series on HepG2 and 14.6 µM with HCT-116 [1].

As to `CCOP(=O)(OCC)C(NNC(=O)CSc1nnc(-c2ccncc2)o1)c1ccc(C)cc1` (stereo unspecified), the IC50 in the series with MCF7 turned out to be 86.3 µM; in the series on HepG2, 19.5 µM; with HCT-116 [1] it was 17.6 µM.

With `CCOP(=O)(OCC)C(NNC(=O)CSc1nnc(-c2ccncc2)o1)c1ccccc1` (stereo unspecified), the figures for the IC50 with MCF7, with HepG2 and in the series on HCT-116 [1] were 99.1 µM, 23.5 µM and 22.5 µM, respectively.

For the compound `CCOP(=O)(OCC)C(NNC(=O)CSc1nnc(-c2ccncc2)o1)c1ccc(Br)cc1` (stereo unspecified), the values for the half-inhibitory concentration (IC50) in the series on MCF7, with HepG2 and in the series on HCT-116 [1] were 64.4 µM, 31 µM and 17.3 µM, respectively.

Regarding `CCOP(=O)(OCC)C(NNC(=O)CSc1nnc(-c2ccncc2)o1)c1ccc(C#N)cc1` (stereo unspecified), the IC50 with MCF7 was 41.7 µM; in the series with HepG2, 13.6 µM; in the series with HCT-116 [1], 12.7 µM.

In the case of `CCOP(=O)(OCC)C(NNC(=O)CSc1nnc(-c2ccncc2)o1)c1ccc2ccccc2c1` (stereo unspecified), the “fold change (FC)” value in the series on HCT-116 [2] is on record as 5.69; in the series on HCT-116 [3] it was 8.85; in the series on HCT-116 [12], 3.64; in the series with HCT-116 [14], 5.78; with HCT-116 [15], 5.99. Moreover, the IC50 in the series on MCF7 amounted to 57.3 µM; in the series with HepG2 it was 25.8 µM; with HCT-116 [1], 9.5 µM; with FHC, 23.4 µM. Besides, the Activity with HCT-116 [4] was determined as 5.945 ng/mL; in the series on HCT-116 [5], 37.97%; in the series with HCT-116 [6], 4.59%; with HCT-116 [7] it was 12.51%; in the series with HCT-116 [8] it was 30.56%; with HCT-116 [9], 2.14%. For the same compound, the results for the Activity in the series on HCT-116 [11] and in the series with HCT-116 [13] were 31.47% and 19.24%, respectively. For the same compound, in series [10], the selectivity ratio was 2.46.

Take `CCOP(=O)(OCC)C(NNC(=O)CSc1nnc(-c2ccncc2)o1)c1ccccc1Cl` (stereo unspecified): the “fold change (FC)” value in the series on HCT-116 [2] is recorded as 6.72; with HCT-116 [3] it was 11.61; in the series with HCT-116 [12], 6.4; in the series with HCT-116 [14], 6.18; in the series with HCT-116 [15] it was 7.78. Besides, the IC50 in the series with MCF7 came out at 62.9 µM; in the series with HepG2, 19.2 µM; in the series with HCT-116 [1] it was 9.2 µM; in the series on FHC, 35.9 µM. The Activity in the series with HCT-116 [4] came to 5.088 ng/mL; in the series with HCT-116 [5], 46.33%; in the series on HCT-116 [6], 7.26%; with HCT-116 [7] it was 15.69%; in the series on HCT-116 [8], 24.91%; in the series with HCT-116 [9], 3.28%. Further, the Activity with HCT-116 [11] is listed as 28.76%; in the series on HCT-116 [13], 26.23%. Further, the selectivity ratio in [10] was determined as 3.9.

Regarding `CCOP(=O)(OCC)C(NNC(=O)CSc1nnc(-c2ccncc2)o1)c1ccc([N+](=O)[O-])cc1` (stereo unspecified), the IC50 in the series with MCF7 was determined as 58.8 µM; in the series on HepG2 it was 18.1 µM; in the series with HCT-116 [1] it was 15 µM.

Consider `CCOP(=O)(OCC)C(NNC(=O)CSc1nnc(-c2ccncc2)o1)c1cccc(OC)c1` (stereo unspecified), for which the IC50 with MCF7 was 52.3 µM; with HepG2, 53.9 µM; in the series with HCT-116 [1], 19.2 µM.

Consider `CCOP(=O)(OCC)C(NNC(=O)CSc1nnc(-c2ccncc2)o1)c1cc(OC)ccc1OC` (stereo unspecified), for which the IC50 stood at 61.6 µM in the series on MCF7, 20.3 µM in the series with HepG2 and 24.6 µM with HCT-116 [1].

For the compound `COc1cccc2c1C(=O)c1c(O)c3c(c(O)c1C2=O)C[C@@](O)(C(=O)CO)C[C@@H]3O[C@H]1C[C@H](N)[C@H](O)[C@H](C)O1` [DOXORUBICIN], the IC50 with HepG2 turned out to be 10.4 µM; in the series with HCT-116 [1], 9.4 µM.
